Patent publication US7138361B2, “Herbicidal heterocycles” (E. I. du Pont de Nemours and Company, priority 2000, dated 2006)

Key:
Format in all cases: in vivo
[1] = system: cocklebur (Xanthium strumarium); experiment: Test B preemergence
Summary of the method: (§1)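 Ratings on a 0 to 100 visual scale (100 complete control) compare treated plants with controls 13 to 15 days after application. Treatments were pre- or postemergence sprays of compound in non-phytotoxic solvent with surfactant.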

[2] = system: morning glory (Ipomoea hederacea); experiment: Test B preemergence
Summary of the method: as §1

[3] = system: lambsquarters (Chenopodium album); experiment: Test B preemergence
Summary of the method: as §1

[4] = system: barnyardgrass (Echinochloa crus-galli); experiment: Test B preemergence
Summary of the method: as §1

[5] = system: velvetleaf (Abutilon theophrasti); experiment: Test B preemergence
Summary of the method: as §1

[6] = system: Surinam grass (Brachiaria decumbens); experiment: Test B preemergence
Summary of the method: as §1

[7] = system: pigweed (Amaranthus retroflexus); experiment: Test B preemergence
Summary of the method: as §1

corn (Zea mays) = experiment: Test B preemergence
Summary of the method: as §1

[8] = system: giant foxtail (Setaria faberii); experiment: Test B preemergence
Summary of the method: as §1

[9] = system: crabgrass (Digitaria sanguinalis); experiment: Test B preemergence
Summary of the method: as §1

rice (Oryza saliva) = experiment: Test B preemergence
Summary of the method: as §1

[10] = system: cocklebur (Xanthium strumarium); experiment: Test C preemergence; details: for Plant response rating, Cocklebur: scale 0 to 100, 0 no effect, 100 complete control; for Plant response rating (0 to 100), Cocklebur: visual evaluation after 12 to 14 days
Summary of the method: (§2)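 Each compound was dissolved in a non-phytotoxic solvent system containing a surfactant and sprayed either on freshly planted seeds (preemergence) or on young plants, 2 to 18 cm high (postemergence). Ratings after 12 to 14 greenhouse days ran from 0, no effect, to 100, complete control.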

[11] = system: common ragweed (Ambrosia elatior); experiment: Test C preemergence; details: preemergence; for Plant response rating, Ragweed, Common: scale 0 to 100, 0 no effect, 100 complete control
Summary of the method: as §2

[12] = system: Surinam grass (Brachiaria decumbens); experiment: Test C preemergence; details: for Plant response rating, Surinam grass: scale 0 to 100, 0 no effect, 100 complete control; for Plant response rating (0 to 100), Surinam grass: visual evaluation after 12 to 14 days
Summary of the method: as §2

[13] = system: pigweed (Amaranthus retroflexus); experiment: Test C preemergence; details: preemergence; for Plant response rating, Pigweed: scale 0 to 100, 0 no effect, 100 complete control
Summary of the method: as §2

[14] = system: woolly cupgrass (Eriochloa villosa); experiment: Test C preemergence; details: for Plant response rating, Cupgrass, Woolly: scale 0 to 100, 0 no effect, 100 complete control; for Plant response rating (0 to 100), Cupgrass, Woolly: visual evaluation after 12 to 14 days
Summary of the method: as §2

Nightshade = experiment: Test C preemergence; details: scale 0 to 100, 0 no effect, 100 complete control
soybean (Glycine max) = experiment: Test C preemergence; details: preemergence; for Plant response rating, Soybean: scale 0 to 100, 0 no effect, 100 complete control
Summary of the method: as §2

[15] = system: crabgrass (Digitaria sanguinalis); experiment: Test C preemergence; details: for Plant response rating, Crabgrass: scale 0 to 100, 0 no effect, 100 complete control; for Plant response rating (0 to 100), Crabgrass: visual evaluation after 12 to 14 days
Summary of the method: as §2

[16] = system: goosegrass (Eleusine indica); experiment: Test C preemergence; details: for Plant response rating, Goosegrass: scale 0 to 100, 0 no effect, 100 complete control; for Plant response rating (0 to 100), Goosegrass: visual evaluation after 12 to 14 days
Summary of the method: as §2

[17] = Preemergence, Rate 500 g/ha, scale 0 to 100, 0 no effect, 100 complete control
[18] = preemergence, Rate 125 g/ha, scale of 0 to 100 where 0 is no effect and 100 is complete control, 13 to 15 days
[19] = Rate 500 g/ha, visual evaluation after 12 to 14 days

`COc1cc(OC)cc(N2CCC(n3ccc(C(C)(C)C)n3)C2=O)c1` (stereo not drawn) [Compound 71] was tested, and the “Plant response rating, Cocklebur” value [1, 17] was 0, the “Plant response rating, Cocklebur” value [1, 18] was 0 and the “Plant response rating, Morningglory” value [2, 17] was 0. The “Plant response rating, Morningglory” value [2, 18] was 0, the “Plant response rating, Lambsquarters” value [3, 17] was 100 and the “Plant response rating, Lambsquarters” value [3, 18] was 100. For the same molecule, the “Plant response rating, Barnyardgrass” value [4, 17] was 90, the “Plant response rating, Barnyardgrass” value [4, 18] was 10 and the “Plant response rating, Velvetleaf” value [5, 17] was 30. The “Plant response rating, Velvetleaf” value [5, 18] was 0, the “Plant response rating, Surinam grass” value [6, 17] was 40 and the “Plant response rating, Surinam grass” value [6, 18] was 40. The “Plant response rating, Pigweed” value [7, 17] was 100, the “Plant response rating, Pigweed” value [7, 18] was 100 and the “Plant response rating, Corn” value (corn (Zea mays); [17]) was 20. The “Plant response rating, Corn” value (corn (Zea mays); [18]) was 0, the “Plant response rating, Foxtail, Giant” value [8, 17] was 100 and the “Plant response rating, Foxtail, Giant” value [8, 18] was 90. For the same molecule, the “Plant response rating, Crabgrass” value [9, 17] was 100, the “Plant response rating, Crabgrass” value [9, 18] was 50 and the “Plant response rating, Rice” value (rice (Oryza saliva); [17]) was 40. For the same molecule, the “Plant response rating, Rice” value (rice (Oryza saliva); [18]) was 20, the “Plant response rating, Cocklebur” value ([10]; Rate 62 g/ha) was 0 and the “Plant response rating (0 to 100), Cocklebur” value ([10]; preemergence, Rate 250 g/ha) was 30. For the same molecule, the “Plant response rating (0 to 100), Cocklebur” value ([10]; preemergence, Rate 500 g/ha) was 30, the “Plant response rating, Cocklebur” value ([10]; preemergence, Rate 125 g/ha) was 0 and the “Plant response rating (0 to 100), Ragweed, Common” value [11, 19] was 30. For the same molecule, the “Plant response rating, Ragweed, Common” value ([11]; Rate 125 g/ha) was 0, the “Plant response rating, Ragweed, Common” value ([11]; Rate 250 g/ha) was 0 and the “Plant response rating, Surinam grass” value ([12]; Rate 62 g/ha) was 30. The “Plant response rating (0 to 100), Surinam grass” value ([12]; preemergence, Rate 250 g/ha) was 50, the “Plant response rating (0 to 100), Surinam grass” value ([12]; preemergence, Rate 500 g/ha) was 90 and the “Plant response rating, Surinam grass” value ([12]; preemergence, Rate 125 g/ha) was 30. The “Plant response rating (0 to 100), Pigweed” value [13, 19] was 100, the “Plant response rating, Pigweed” value ([13]; Rate 125 g/ha) was 0 and the “Plant response rating, Pigweed” value ([13]; Rate 250 g/ha) was 100. For the same molecule, the “Plant response rating, Cupgrass, Woolly” value ([14]; Rate 62 g/ha) was 0, the “Plant response rating (0 to 100), Cupgrass, Woolly” value ([14]; preemergence, Rate 250 g/ha) was 100 and the “Plant response rating (0 to 100), Cupgrass, Woolly” value ([14]; preemergence, Rate 500 g/ha) was 100. The “Plant response rating, Cupgrass, Woolly” value ([14]; preemergence, Rate 125 g/ha) was 80, the “Plant response rating, Nightshade” value (Nightshade; Rate 62 g/ha) was 0 and the “Plant response rating, Nightshade” value (Nightshade; Rate 125 g/ha) was 20. For the same molecule, the “Plant response rating, Nightshade” value (Nightshade; Rate 250 g/ha) was 30, the “Plant response rating (0 to 100), Soybean” value (soybean (Glycine max); [19]) was 0 and the “Plant response rating, Soybean” value (soybean (Glycine max); Rate 125 g/ha) was 0. The “Plant response rating, Soybean” value (soybean (Glycine max); Rate 250 g/ha) was 0, the “Plant response rating, Crabgrass” value ([15]; Rate 62 g/ha) was 40 and the “Plant response rating (0 to 100), Crabgrass” value ([15]; preemergence, Rate 250 g/ha) was 100. The “Plant response rating (0 to 100), Crabgrass” value ([15]; preemergence, Rate 500 g/ha) was 100, the “Plant response rating, Crabgrass” value ([15]; preemergence, Rate 125 g/ha) was 100 and the “Plant response rating, Goosegrass” value ([16]; Rate 62 g/ha) was 30. For the same molecule, the “Plant response rating (0 to 100), Goosegrass” value ([16]; preemergence, Rate 250 g/ha) was 100, the “Plant response rating (0 to 100), Goosegrass” value ([16]; preemergence, Rate 500 g/ha) was 100 and the “Plant response rating, Goosegrass” value ([16]; preemergence, Rate 125 g/ha) was 90.
